This is an account of results in PMC6965684, “Characterization of binding, functional activity, and contractile responses of the selective 5‐HT1F receptor agonist lasmiditan” (British Journal of Pharmacology, 2019).

SMILES strings stand for the structures. Structures can show the parent of a compound that is named as a salt. Where two headings read alike, the source gives them in different places.

Assay [1] concerns the target T1, 5-HT1A receptor (Homo sapiens, UniProt P08908).
T1 construct: gene HTR1A; full-length human recombinant receptor in CHO-K1 cells (Ogeda); crude membranes
T1 sequence (P08908 1-422): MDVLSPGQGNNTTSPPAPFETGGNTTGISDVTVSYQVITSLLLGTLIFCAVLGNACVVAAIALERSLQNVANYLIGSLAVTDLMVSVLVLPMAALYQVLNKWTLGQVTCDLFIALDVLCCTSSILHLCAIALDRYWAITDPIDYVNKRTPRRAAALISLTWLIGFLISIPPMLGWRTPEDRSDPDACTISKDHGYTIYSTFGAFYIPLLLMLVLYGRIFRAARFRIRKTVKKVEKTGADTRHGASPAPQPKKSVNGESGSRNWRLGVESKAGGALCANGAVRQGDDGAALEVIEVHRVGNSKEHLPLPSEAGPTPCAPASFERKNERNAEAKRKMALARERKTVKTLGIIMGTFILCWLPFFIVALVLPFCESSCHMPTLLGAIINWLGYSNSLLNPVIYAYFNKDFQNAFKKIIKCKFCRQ
Description: biochemical. It is filed as CHO-K1 membranes. Details: radioligand competition binding on cell membranes, filtration and TopCount scintillation counting. The following applies: radioligand displacement; read-out: 5‐HT1A / pIC50 (converted). How it is done: (§1) Competition binding was performed in duplicate in the wells of a 96‐well plate containing binding buffer (optimized for each receptor), cell membrane extracts (approximately 20,000 cells distributed in the 96‐well plate), radiotracer, and test agonist. Non‐specific binding was determined by co‐incubation with 200‐fold excess of competitor. Cells were incubated and exposed to varying concentrations (1 pM to 10 μM) of a range of displacer agonists (see below). The samples were incubated in a final volume of 0.1 ml and then filtered over Unifilter plates (Perkin Elmer, Massachusetts, USA) pretreated for 2 hr to limit tracer non‐specific binding. Filters were washed five times with 0.5 ml of ice‐cold washing buffer (tris 50 mM pH 7.4) and 50 μl of Microscint 20 (Perkin Elmer) were added to each filter. The plates were incubated 15 min at room temperature on an orbital shaker and then counted with a TopCount™ (Perkin Elmer) for 1 min per well. […] Additionally, the reference values obtained were compared to historical values obtained from the same receptor and used to validate the experimental session. […] For the new assays developed in this study (i.e., 5‐ht1E receptor), the two independent pIC50 determined must be concordant with a 1 log unit interval for the assays to be validated.

Assay [2] deals with T2, 5-HT2A receptor (Homo sapiens, UniProt P28223).
T2 construct: gene HTR2A; full-length human recombinant receptor in CHO-K1 cells (Ogeda); crude membranes
Description: biochemical. The class given is CHO-K1 membranes. Details: radioligand competition binding on cell membranes, filtration and TopCount scintillation counting. To be noted: for Ki: read-out: 5‐HT2A / pKi (converted). How it is done: as §1, with “validated. […]” for “validated.”

The target in assay [3] is T1, 5-HT1A receptor. Description: cell-based. Details: species or system CHO-K1; cAMP HTRF agonist assay, Gi coupled receptors, inhibition of stimulated cAMP. To be noted: cAMP. The protocol: Concentration–response curves were performed in parallel with the agonists. […] After addition of the lysis buffer and 1‐hr incubation, cAMP concentrations were estimated according to the manufacturer specification with the HTRF kit (Cisbio International, Codelet, France). In brief, increasing concentrations of agonists were added to stably transfected cells in buffer in an Optiplate (PerkinElmer Life Sciences, Massachusetts, USA). The plates were incubated, and cells were then lysed by the addition of HTRF reagents (cAMP‐Cryptate and anti‐cAMP‐d2 reagents) and diluted in lysis buffer, followed by incubation at room temperature. […] Additionally, the reference values obtained were compared to historical values obtained from the same receptor and used to validate the experimental session. […] For the new assays developed in this study (i.e., 5‐ht1E receptor), the two independent pIC50 determined must be concordant with a 1 log unit interval for the assays to be validated.

The target of assay [4] is T1, 5-HT1A receptor. Put plainly: biochemical. The class given is CHO-K1 membranes. Also noted: GTPγS agonist functional assay. To be noted: GTPγS. From the text:
Additionally, the reference values obtained were compared to historical values obtained from the same receptor and used to validate the experimental session. […] For the new assays developed in this study (i.e., 5‐ht1E receptor), the two independent pIC50 determined must be concordant with a 1 log unit interval for the assays to be validated.

Assay [5] has as its target T2, 5-HT2A receptor. Put plainly: cell-based. Also noted: species or system CHO-K1; IPOne HTRF agonist assay, IP1 accumulation in adherent transfected cells. The protocol: The assay was performed on adherent cells. For agonist testing, the medium was removed and 20 μl of assay buffer plus 20 μl of the studied agonist or the reference agonist were added in each well. The plate was incubated for 60 min at 37°C with 5% CO2. IP1‐D2 reagent and anti‐IP1 cryptate reagents were dispensed in the wells, and IP1 concentrations were then measured following the manufacturer instructions (IPOne HTRF assay kit; Cisbio International, Codolet, France). In brief, increasing concentrations of agonists were added to stably transfected cells in buffer in an Optiplate (PerkinElmer Life Sciences). The plates were incubated, and cells were then lysed by the addition of HTRF reagents (IP1‐D2 reagent and anti‐IP1 cryptate reagents) and diluted in lysis buffer, followed by incubation at room temperature. […] Additionally, the reference values obtained were compared to historical values obtained from the same receptor and used to validate the experimental session. […] For the new assays developed in this study (i.e., 5‐ht1E receptor), the two independent pIC50 determined must be concordant with a 1 log unit interval for the assays to be validated. […]

Where [6] appears, read: radioligand displacement, read-out: 5‐HT2A / pIC50 (converted).
Where [7] appears, read: IP, read-out: 5‐HT2A / IP (converted).

T2 sequence (P28223 whole entry): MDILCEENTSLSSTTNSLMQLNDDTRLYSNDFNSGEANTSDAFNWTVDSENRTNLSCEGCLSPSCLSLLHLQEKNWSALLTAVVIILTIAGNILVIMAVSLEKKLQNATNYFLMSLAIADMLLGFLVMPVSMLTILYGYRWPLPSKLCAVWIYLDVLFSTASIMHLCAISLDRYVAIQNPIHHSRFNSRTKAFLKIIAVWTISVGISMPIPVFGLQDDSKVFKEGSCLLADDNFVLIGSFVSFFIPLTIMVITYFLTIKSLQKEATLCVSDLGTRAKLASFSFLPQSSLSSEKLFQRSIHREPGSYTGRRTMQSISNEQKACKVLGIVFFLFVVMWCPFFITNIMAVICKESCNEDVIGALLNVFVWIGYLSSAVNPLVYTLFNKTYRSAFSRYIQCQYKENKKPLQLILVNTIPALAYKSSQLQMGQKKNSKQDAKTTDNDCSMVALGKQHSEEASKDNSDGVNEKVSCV

As for `CNC1CCc2[nH]c3ccc(C(N)=O)cc3c2C1` (racemic) [Frovatriptan racemate], the figures for the IC50 at 5-HT1A receptor [1] and on 5-HT2A receptor [2] (setting [6]) were 0.148 µM and greater than 10 µM, respectively. The Ki at 5-HT2A receptor [2] (radioligand displacement) was greater than 10 µM. The EC50 at 5-HT1A receptor [3] was greater than 10 µM; on 5-HT1A receptor [4], 0.759 µM; at 5-HT2A receptor [5] (setting [7]), greater than 10 µM.
As for `CNS(=O)(=O)Cc1ccc2[nH]cc(CCCN3CCN(c4ncncc4OC)CC3)c2c1` [Avitriptan fumarate], the results for the IC50 on 5-HT1A receptor [1] and on 5-HT2A receptor [2] (setting [6]) were 0.0631 µM and 7.76 µM, respectively. Further, the EC50 is greater than 10 µM at 5-HT1A receptor [3], 0.646 µM on 5-HT1A receptor [4] and 0.123 µM on 5-HT2A receptor [5] (setting [7]).
Turning to `N#Cc1ccc(N2CCN(C(=O)COc3ccc4[nH]cc(CCN)c4c3)CC2)cc1` [Donitriptan hydrochloride], the IC50 at 5-HT1A receptor [1] is 0.038 µM; on 5-HT2A receptor [2] (setting [6]), 1.48 µM. For the same molecule, the EC50 on 5-HT1A receptor [3] is 1.15 µM; at 5-HT1A receptor [4] it was 0.182 µM; on 5-HT2A receptor [5] (setting [7]), 0.00794 µM.
Regarding `CN1CCC[C@@H]1Cc1c[nH]c2ccc(CCS(=O)(=O)c3ccccc3)cc12` [Eletriptan hydrobromide], the figures for the IC50 on 5-HT1A receptor [1] and at 5-HT2A receptor [2] (setting [6]) were 0.00631 µM and 3.8 µM, respectively. The values for the EC50 at 5-HT1A receptor [3], on 5-HT1A receptor [4] and at 5-HT2A receptor [5] (setting [7]) were 1.82 µM, 0.417 µM and 0.851 µM, respectively.
For the molecule `CN(C)[C@@H]1CCc2[nH]c3ccc(NC(=O)c4ccc(F)cc4)cc3c2C1` [LY344864 hydrochloride], the IC50 was 0.759 µM at 5-HT1A receptor [1] and 7.76 µM on 5-HT2A receptor [2]. Also, the EC50 at 5-HT1A receptor [3], at 5-HT1A receptor [4] and at 5-HT2A receptor [5] was greater than 10 µM throughout.
Regarding `CNS(=O)(=O)CCc1ccc2[nH]cc(C3CCN(C)CC3)c2c1` [Naratriptan hydrochloride], the IC50 at 5-HT1A receptor [1] is 0.049 µM; at 5-HT2A receptor [2] (setting [6]), greater than 10 µM. In addition, the Ki at 5-HT2A receptor [2] (radioligand displacement) is greater than 10 µM. The EC50 is greater than 10 µM on 5-HT1A receptor [3], 0.302 µM at 5-HT1A receptor [4] and greater than 10 µM at 5-HT2A receptor [5] (setting [7]).
